What all share (type): in vivo
Data set [1] has as its system patients who underwent percutaneous coronary intervention (PCI). Briefly: Maximum periprocedural CK-MB in patients with adjunctive platelet aggregation inhibitor (study data of Example 1 re-examined). The settings on record: adjunctive ASA 82 or 325 mg, eptifibatide, or clopidogrel 75 or 300 mg.
Description: Study end points and definitions: The primary objective of the study was to evaluate the feasibility of treatment with P5P as a cardioprotective agent in high-risk elective PCI. The primary end point of infarct size was evaluated by the trapezoidal rule (Press W H, Teukolsky S A, Vetterling W T, Flannery B P. Numerical Recipes. Cambridge, UK: Cambridge University Press, 1994:127-133) using serial CK-MB enzyme measures performed at baseline and every 6 hours for 24 hours beginning immediately before initiation of PCI. The occurrence of myocardial ischemia within 24 hours after PCI was assessed as a secondary end point using continuous 12-lead electrocardiographic monitoring (Northeast Monitoring, Boston, Mass.). […] Area under the curve ST-segment deviation was measured from the onset of the first to the last contrast injection. […]
Data set [2] shares this test system. Briefly: Periprocedural cardiac markers (serial CK-MB, troponin T) after high-risk elective PCI, P5P vs placebo. The source says: (§1) Methods—Study Overview: 60 patients who underwent percutaneous coronary intervention (PCI) at 4 centers were randomized in a 2:1 double-blinded fashion to treatment with P5P or placebo. Inclusion criteria required prior determination for non-urgent PCI of a single-vessel lesion(s) and identification of ≧1 of the following clinical characteristics determining high risk for procedural-related ischemic complications (Califf R M, Abdelmeguid A E, Kuntz R E, Popma J J, Davidson C J, Cohen E A, Kleiman N S, Mahaffey K W, Topol E J, Pepine C J, et al. Myonecrosis after revascularization procedures. J Am Coll Cardiol 1998; 31:241-251; The ESPRIT Investigators. Novel dosing regimen of eptifibatide in planned coronary stent implantation: a randomised, placebo-controlled trial. Lancet 2000; 356:2037-2044): presence of an acute coronary syndrome (chest pain within 48 hours of PCI), recent AMI (≦7 days), diminished epicardial blood flow, angiographic thrombus, ejection fraction ≦30%, or vein graft lesion. In addition to any general contraindication to the PCI procedure or standard concomitant therapies, major exclusion criteria were creatine kinase (CK-MB) elevation above the upper limit of normal immediately before PCI, electrocardiographic evidence of atrial fibrillation or left bundle branch block, or evidence of any clinically significant abnormal laboratory finding (transaminases, bilirubin, or alkaline phosphatase >1.5 times the upper limit of normal or serum creatinine >1.8 mg/dl). Patients with elevated troponin measurements were permitted in the study provided that the peak troponin value was reported >24 hours before scheduled PCI, with documentation of a decreasing value before revascularization. After providing informed consent, patients randomized to treatment with P5P were administered enteric-coated P5P as a 10 mg/kg oral dose ≧4 hours before PCI followed by 2 daily doses of 5 mg/kg orally for 14 days. Compliance and reasons for discontinued treatments were recorded for all patients.
(§2) Study end points and definitions: The primary objective of the study was to evaluate the feasibility of treatment with P5P as a cardioprotective agent in high-risk elective PCI. The primary end point of infarct size was evaluated by the trapezoidal rule (Press W H, Teukolsky S A, Vetterling W T, Flannery B P. Numerical Recipes. Cambridge, UK: Cambridge University Press, 1994:127-133) using serial CK-MB enzyme measures performed at baseline and every 6 hours for 24 hours beginning immediately before initiation of PCI. The occurrence of myocardial ischemia within 24 hours after PCI was assessed as a secondary end point using continuous 12-lead electrocardiographic monitoring (Northeast Monitoring, Boston, Mass.). Evidence of periprocedural ischemia was defined as ST-segment depression of >100 μV within a 60-minute period of PCI, lasting ≧1 minute and separated from other episodes by ≧1 minute. Area under the curve ST-segment deviation was measured from the onset of the first to the last contrast injection. All cardiac markers and ST-segment monitoring data were analyzed by core laboratories blinded to treatment assignment (University of Maryland School of Medicine, Baltimore, Md.; Duke Ischemia Monitoring Laboratory, Durham, N.C.). […]

Data set [3] has the same test system. Nature of the data set: 24-h continuous 12-lead electrocardiographic ST monitoring after PCI. The procedure:
Methods—Study Overview: 60 patients who underwent percutaneous coronary intervention (PCI) at 4 centers were randomized in a 2:1 double-blinded fashion to treatment with P5P or placebo. […] Compliance and reasons for discontinued treatments were recorded for all patients.
as §2, with “Evidence of periprocedural ischemia was defined as ST-segment depression of >100 μV within a 60-minute period of PCI, lasting ≧1 minute and separated from other episodes by ≧1 minute.” left out

For data set [4] the test system is unchanged. Nature of the data set: 30-day composite and individual clinical event rates after PCI. The settings on record: 30 days.
Excerpt: Methods—Study Overview: 60 patients who underwent percutaneous coronary intervention (PCI) at 4 centers were randomized in a 2:1 double-blinded fashion to treatment with P5P or placebo. Inclusion criteria required prior determination for non-urgent PCI of a single-vessel lesion(s) and identification of ≧1 of the following clinical characteristics determining high risk for procedural-related ischemic complications (Califf R M, Abdelmeguid A E, Kuntz R E, Popma J J, Davidson C J, Cohen E A, Kleiman N S, Mahaffey K W, Topol E J, Pepine C J, et al. Myonecrosis after revascularization procedures. J Am Coll Cardiol 1998; 31:241-251; The ESPRIT Investigators. Novel dosing regimen of eptifibatide in planned coronary stent implantation: a randomised, placebo-controlled trial. Lancet 2000; 356:2037-2044): presence of an acute coronary syndrome (chest pain within 48 hours of PCI), recent AMI (≦7 days), diminished epicardial blood flow, angiographic thrombus, ejection fraction ≦30%, or vein graft lesion. […] Compliance and reasons for discontinued treatments were recorded for all patients.
as §2, with “Evidence of periprocedural ischemia was defined as ST-segment depression of >100 μV within a 60-minute period of PCI, lasting ≧1 minute and separated from other episodes by ≧1 minute.” left out, “injection.” for “injection. All cardiac markers and ST-segment monitoring data were analyzed by core laboratories blinded to treatment assignment (University of Maryland School of Medicine, Baltimore, Md.; Duke Ischemia Monitoring Laboratory, Durham, N.C.).”

Data set [5] shares this test system. Briefly: Clinical safety (bleeding, transfusion, chemistries, coagulation, discontinuation).
Excerpt: as §1, §2

Data set [6] has the same test system. Nature of the data set: Procedural and angiographic results (investigator-reported).
Excerpt: as §1
Except for a higher incidence of reduced epicardial flow among control patients, baseline angiographic and procedural characteristics also appeared similar between treatment groups (Table 1). Administration of P5P or placebo occurred an average of 6.1 and 8.4 hours before PCI, respectively. Stent implantation was performed in 100% and 97.3% of the placebo and P5P treatment groups, respectively. Only 1 vein graft intervention was performed using distal embolic protection. Although the right coronary artery was most commonly treated in both groups, fewer patients treated with placebo underwent revascularization of a saphenous vein graft (Table 2). Procedural angiographic complications (e.g., major dissection, abrupt vessel closure) were infrequent (Table 2).

Entries after “also recorded” stand apart in the source; their conditions may differ.

`CC(=O)Oc1ccccc1C(=O)O` [ASA + placebo, acetylsalicylic acid]: the “CK-MB max (mean)” value in data set [1] came to 3.41 ng/mL.
On the same count and under the same terms, under `COC(=O)[C@H](c1ccccc1Cl)N1CCc2sccc2C1` [Clopidogrel + placebo, clopidogrel] stands 3.41 ng/mL.
Turning to `Cc1ncc(COP(=O)(O)O)c(C=O)c1O` [P5P, pyridoxal-5-phosphate], the “maximum / peak periprocedural CK-MB level versus placebo” value in data set [2] (P5P vs placebo) is given as “significantly lower; also recorded: significant decrease”. In data set [2] (median (interquartile range)), the “Time to peak CK-MB” value is listed as 11.0 (0-18.0), 36 h. For the same compound, the “change in troponin T” value in data set [2] (median (interquartile range), baseline to within 24 h after PCI) was 0 (0-0.07), 36 ng/ml. Besides, the “Area under the curve CK-MB (periprocedural infarct size)” value in data set [2] (median (interquartile range), enteric-coated P5P 10 mg/kg oral ≧4 h before PCI, then 5 mg/kg twice daily 14 days, CK-MB every 6 h for 24 h) is listed as 18.6 (10.2-34.5), 35 ng/ml. Moreover, in data set [2] (median (interquartile range), periprocedural), the “Peak CK-MB” value is given as 1.1 (0.5-2.4), 39 ng/ml. In addition, in data set [3] (median (interquartile range), 24-h continuous ST monitoring), the “Area under the curve ST deviation” value is reported as 1349 (951-2.263), 35 μV-min. The “Any post PCI ischemia” value in data set [3] (percent of patients, within 24 h after PCI) was 14.7-34%. In data set [4], the 30-day deaths result was “no deaths”. Further, in data set [4] (p=1.0 vs placebo), the “30-day composite adverse event rate (death, nonfatal AMI, new and/or worsening heart failure, or recurrent ischemia)” value was 17.9% and the “30-day nonfatal AMI” value stood at 12.8%. Also, the “abnormalities of routine chemistries or coagulation studies versus placebo” value in data set [5] (at 7 and 30 days) is on record as “no apparent differences”. In addition, the “safety issues related to treatment” value in data set [5] (human, in vivo) is “No safety issues”. For the same compound, the “need for blood product transfusion” value in data set [5] (p=0.26 vs placebo) is given as 2.5%. This compound also yielded a major bleeding in data set [5] (p=0.27 vs placebo) of 2.8%. In addition, in data set [5] (p=0.77 vs placebo), the “patients discontinued drug therapy before completion of the prescribed 2 weeks” value was 30.8%. In addition, in data set [6] (after PCI, n = 37), the “TIMI flow final 0/1” value is 0 number (percent), the “TIMI flow final 2” value was 0 number (percent) and the “TIMI flow final 3” value is on record as 37 (100) number (percent). Besides, the Diameter stenosis final in data set [6] (median (interquartile range), after PCI) was 0 (0-0) %. Moreover, in data set [6] (n = 37), the “Procedural complications: Abrupt closure” value was 0 number (percent), the “Procedural complications: Distal embolization” value is given as 0 number (percent), the “Procedural complications: Major dissection” value is on record as 1 (3) number (percent) and the “Procedural complications: No reflow” value is recorded as 0 number (percent). For the same compound, in data set [6] (n = 37), the “Procedural complications: None” value is listed as 35 (95) number (percent), the “Procedural complications: Side branch closure” value is reported as 1 (3) number (percent) and the “Procedural complications: Thrombus formation” value is 0 number (percent).
In the case of eptifibatide [Eptifibatide + placebo], in data set [1], the “CK-MB max (mean)” value was 3.40 ng/mL.
